Source: patent US20220169672A1, “COMPOUNDS FOR TARGETED THERAPIES OF CASTRATION RESISTANT PROSTATE CANCER” (Purdue Research Foundation, priority 2019, published 2022)
Where two headings read alike, the source gives them in different places.

Assays:
LNCaP cells [1] = assay: Cell proliferation / growth inhibition in LNCaP cells; format: cell-based; details: Homo sapiens, read-out: growth inhibition IC50
Protocol: All these cells were and maintained at 37° C. with 5% CO2 atmosphere in a humidified incubator following American Type Culture Collection (ATCC) protocol. LNCaP cells were grown in RPMI-1640 (Gibco) supplemented with 10% FBS (Atlanta Biologics), 20 mM HEPES and 1% penicillin/streptomycin (Invitrogen). […] For experiments, cells were used from 3 to 12 passages from thawing.

C4-2 cells [2] = assay: Cell proliferation / growth inhibition in CRPC C4-2 cells; format: cell-based, human
Protocol: (§1) To identify initial lead(s), we first tested all ten drugs in vitro in human prostate cancer LNCaP and CRPC C4-2 cells to see their growth inhibition effect.
We assessed anti-cancer activity of the synthetic molecules in prostate cancer cell lines as well as toxicity of the active molecules in normal human cell line.
(§2) The LNCaP, C4-2 & RWPE-1 cell lines were provided by Professor Timothy Ratliff (Purdue University Center for Cancer Research, USA). All these cells were and maintained at 37° C. with 5% CO2 atmosphere in a humidified incubator following American Type Culture Collection (ATCC) protocol. LNCaP cells were grown in RPMI-1640 (Gibco) supplemented with 10% FBS (Atlanta Biologics), 20 mM HEPES and 1% penicillin/streptomycin (Invitrogen). C4-2 cells were grown in 4:1 DMEM/F12-K medium (Gibco) supplemented with 10% FBS (Atlanta Biologics), 1% penicillin/streptomycin (Invitrogen), 3 mg/mL sodium bicarbonate, 5 μg/mL insulin, 1.36 ng/mL triiodothyronine, 5 μg/mL transferrin, 0.25 μg/mL biotin and 25 μg/mL adenine. For normal growth, RWPE-1 cells were maintained in Keratinocyte Serum Free Medium (K-SFM) (Invitrogen) supplemented with 0.05 mg/mL bovine pituitary extract (BPE) and 5 ng/mL epidermal growth factor (EGF). […] For experiments, cells were used from 3 to 12 passages from thawing.
(§3) The cell proliferation experiment was carried out by the ‘Cell Titer-Blue Cell Viability Assay,’ In this assay, approximately 5,000 cells/well were seeded in 100 μL growth media in poly-L-lysine coated 96-well plates. Next day, the cells were treated with additional 100 μL of various concentrations of the test compounds or DMSO-growth media as untreated control for 6 days in a humidified incubator at 37° C. and 5% CO2 atmosphere. 10 μL ‘Cell Titer-Blue Reagent’ was added directly to each well after 6 days and the plates were incubated for 3 h at 37° C. to allow cells to convert resazurin to resorufin, and the fluorescent signal was measured at 590 nm using a multiplate ELISA reader (Bio-Tek Synergy HT plate reader, Bio-Tek, Winooski, Vt.). The percentage of viable cells in a compound-treated sample was calculated by considering the absorbance of the DMSO-growth media treated sample as 100%. Data was analysed and IC50 value was calculated using GraphPad Prism Software. All experimental points were done in triplicate and experiments were repeated at least thrice.

in vitro = details: human
Protocol: as §1, §2, §3
(§4) The cell viability assay was performed using a standard methyl thiazolyldiphenyl tetrazolium bromide (MTT) assay. In this assay, approximately 5,000 cells/well were seeded in 100 μL growth media in poly-L-lysine coated 96-well plates. After 1 day of plating, the cells were treated with additional 100 μL of various concentrations of the test compounds or DMSO-growth media as untreated control for 3 days more in a humidified incubator at 37° C. and 5% CO2 atmosphere. After 3 days, the culture medium was replaced with 100 μL of MTT solution (using 1 mg/ml stock in growth media) per well and further incubated at 37° C. for 3-4 h. To dissolve the formazan crystals formed in each well by mitochondrial reductase from live cells, 100 μL DMSO was added in each well and shaked for 30 min at RT using an orbital shaker. The absorbance of each well was measured at 570 nm using a multiplate ELISA reader (Bio-Tek Synergy HT plate reader, Bio-Tek, Winooski, Vt.). The percentage of viable cells in a compound-treated sample was calculated by considering the absorbance of the DMSO-growth media treated sample as 100%. All experimental points were done in triplicate and experiments were repeated at least thrice.

LNCaP cells [3] = assay: In vitro scratch assay, LNCaP cell migration; format: cell-based, human; details: no treatment 4.8 μm/h
Text: (§5) We evaluated effects of the active leads on the cancer cell migration—as most often, prostate cancer cell metastasizes to bone leading to the advanced prostate cancer. We performed the well developed in vitro scratch assay to measure both LNCaP and C4-2 cell's migration in presence of the treatments of all these active synthetic compounds. We calculated the migration speed based on the distance travelled/h. The LNCaP cells with no treatment migrated at a speed of 4.8 μm/h, whereas, treatment with 1, 2, 3 and 4 led to a slower rate (2.2, 3.5, 2.6 and 3.7 μm/h respectively) of migration; almost half of the migration speed as compared to that of the non-treated cells. The C4-2 cells with no treatment migrated at a speed of 6.5 μm/h whereas, treatment with 1, 2, 3 and 4 led to a slower rate (2.4, 3.3, 3.9 and 2.5 μm/h respectively) of migration (FIGS. 3D-3E). Since migration is the first step towards invasion and metastasis of cancer cells 1, 2, 3 and 4 might as well interfere with the metastasis process and lead 1 was found as the most efficient among these based on the migration speed rate in both the cells.

C4-2 cells [4] = assay: In vitro scratch assay, C4-2 cell migration; format: cell-based, human; details: no treatment 6.5 μm/h
Text: as §5

RWPE-1 cells = assay: Cytotoxicity in normal prostatic epithelial RWPE-1 cells; details: read-out: cytotoxicity IC50; RWPE-1 normal cells
Protocol: as §1, §2, §3, §4

androgen receptor (AR) = target: T1, androgen receptor (AR) (Homo sapiens, UniProt P10275, T878A); assay: Western blot of AR expression in C4-2 cell lysates; format: cell-based; details: C4-2 cells, 1 μM, 24 h, compared to vehicle and other treatments including ABI
T1 construct: we performed western blot analysis of LNCaP and C4-2 cells' lysates after treated with the indicated drugs/compounds; endogenous in cells; host or cells: C4-2
Protocol: First, 0.5×10^6 cells/well were seeded in 6-well plate coated with 0.01% poly-L-lysine. Next day, cells were treated with 1 μM concentrations of drugs/compounds or 0.01% DMSO-growth media as vehicle control and the treatment was continued for 24 h in a humidified incubator at 37° C. and 5% CO2 atmosphere. Following treatment, cells were washed with cold PBS and lysed in TBSN buffer (20 mmol/L Tris, pH 8.0, 150 mmol/L NaCl, 1.5 mmol/L EDTA, 5 mmol/L EGTA, 0.5% Nonidet P-40, and 0.5 mmol/L Na3VO4) supplemented with 1× protease inhibitor cocktail tablets to obtain cellular lysates. The protein concentration of the whole cell lysate was quantified by Pierce BCA Protein Assay (Thermo Scientific). The lysate was run on 10% SDS-PAGE gel (40 μg of protein per lane) and β-actin (clone 8H10D10, Cell Signaling Technology) was used as a loading control. Proteins were transferred onto PVDF membrane and the nonspecific binding was blocked using 5% milk in PBS-T (0.05% Tween-20 in PBS buffer) for 1 h. […] Protein expression was normalized to β-actin and densitometry was calculated using ImageJ Software.

[5] = mouse liver microsomes, 3 μM, 37° C., 60 min
Protocol: In this assay, the lead compounds were incubated with the respective microsomes at 37° C. and the incubated mixture was analyzed by LC-MS/MS to quantify the remaining parent molecule.
All the test compounds were incubated in duplicate at 3 μM concentration with mouse and human liver microsomes at 37° C. The reaction mixture contained microsomal enzyme in 100 mM potassium phosphate buffer of pH 7.4. Warfarin and verapamil were used as negative and positive control in this assay. After 0 min and 60 min incubation, aliquots were removed from each experimental and control reaction and mixed with an equal volume of ice-cold Stop Solution (0.3% acetic acid in acetonitrile). The samples were centrifuged to remove precipitated protein, and the supernatants were analyzed by LC-MS/MS to quantify the remaining parent molecule. Data represents % remaining as compared to the time zero concentration as 100%.

LuCaP35CR xenografts = assay: LuCaP35CR patient derived xenograft (PDX) mice model
[6] = Homo sapiens, C4-2 cells, read-out: growth inhibition / proliferation IC50
[7] = Homo sapiens, C4-2, read-out: growth inhibition / proliferation IC50
[8] = C4-2 cells, read-out: growth inhibition / proliferation IC50

T1 sequence (P10275 whole entry T878A): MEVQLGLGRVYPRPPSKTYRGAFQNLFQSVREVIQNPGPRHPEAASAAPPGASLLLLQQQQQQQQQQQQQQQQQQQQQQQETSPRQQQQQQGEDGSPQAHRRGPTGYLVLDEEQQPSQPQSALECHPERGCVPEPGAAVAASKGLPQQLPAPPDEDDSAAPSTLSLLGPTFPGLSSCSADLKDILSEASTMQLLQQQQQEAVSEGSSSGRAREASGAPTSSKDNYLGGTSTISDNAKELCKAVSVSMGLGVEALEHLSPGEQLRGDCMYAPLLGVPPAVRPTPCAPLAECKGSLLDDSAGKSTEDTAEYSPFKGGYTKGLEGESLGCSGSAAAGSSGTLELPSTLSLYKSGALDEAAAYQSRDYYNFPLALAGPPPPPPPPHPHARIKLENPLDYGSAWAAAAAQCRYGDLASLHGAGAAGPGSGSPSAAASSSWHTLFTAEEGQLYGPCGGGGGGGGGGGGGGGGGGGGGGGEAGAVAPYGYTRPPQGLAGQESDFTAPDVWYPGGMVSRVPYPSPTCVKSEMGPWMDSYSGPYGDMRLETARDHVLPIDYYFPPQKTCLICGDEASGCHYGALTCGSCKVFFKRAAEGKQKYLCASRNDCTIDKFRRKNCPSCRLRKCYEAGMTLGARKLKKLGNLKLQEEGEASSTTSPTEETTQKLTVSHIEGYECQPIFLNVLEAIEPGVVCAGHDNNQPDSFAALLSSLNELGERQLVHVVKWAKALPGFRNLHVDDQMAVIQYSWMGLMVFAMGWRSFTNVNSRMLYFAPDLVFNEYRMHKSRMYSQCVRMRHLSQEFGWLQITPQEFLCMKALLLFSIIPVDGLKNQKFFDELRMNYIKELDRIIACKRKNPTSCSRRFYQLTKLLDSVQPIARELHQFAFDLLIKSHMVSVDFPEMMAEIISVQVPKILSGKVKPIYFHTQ

Q: For `C#C[C@]1(O)CC[C@H]2[C@@H]3CCC4=CC(=O)CC[C@@H]4[C@H]3CC[C@@]21CC` [LEV, levonorgestrel, reference compound], which IC50 (LNCaP cells [1]; LNCaP cells) is on record?
A: Its IC50 is 181 nM.

Q: And the IC50 (C4-2 cells [2]; [6])?
A: The IC50 was 41.8 nM.

Q: And the IC50 (in vitro)?
A: The IC50 was 59700 nM.

Q: Which IC50 (LNCaP cells [1]; LNCaP cells) does the source give for `C#C[C@]1(O)CC[C@H]2[C@@H]3CCC4=CC(=O)CC[C@@H]4[C@H]3CC[C@@]21C` [NOR, norethisterone, reference compound] here?
A: The IC50 was 32.5 nM.

Q: And the IC50 (C4-2 cells [2]; [6])?
A: Its IC50 is 7.04 nM.

Q: And the IC50 (in vitro)?
A: The IC50 was 86300 nM.

Q: For `C#C[C@]1(O)CC[C@H]2[C@@H]3CCC4=CC(=NO)CC[C@@H]4[C@H]3CC[C@@]21C` [Compound 4], which migration speed (LNCaP cells [3]) is on record?
A: The migration speed was 3.7 μm/h.

Q: And the migration speed (C4-2 cells [4])?
A: The migration speed was 2.5 μm/h.

Q: With `C[C@]12CC[C@H](O)CC1=CC[C@@H]1[C@@H]2CC[C@]2(C)C(c3cccnc3)=CC[C@@H]12` [ABI, abiraterone, reference compound] as the molecule, how does the IC50 (in vitro; RWPE-1 normal prostatic epithelial cells) read?
A: The IC50 was 7200 nM.

Q: Which IC50 (C4-2 cells [2]; [7]) does the source give for `C#C[C@]1(O)CC[C@H]2[C@@H]3CCC4=CC(=O)CC[C@]4(C)[C@H]3CC[C@@]21C` [Compound 2, Ethisterone] here?
A: The IC50 was 11 nM.

Q: And the IC50 (in vitro)?
A: Its IC50 is 18300 nM.

Q: And the migration speed (LNCaP cells [3])?
A: Its migration speed is 3.5 μm/h.

Q: What about the migration speed (C4-2 cells [4]) of the same molecule?
A: Its migration speed is 3.3 μm/h.

Q: For `C#C[C@]1(O)CC[C@H]2[C@@H]3[C@H](C)CC4=C(CCC(=O)C4)[C@H]3CC[C@@]21C` [TIB, tibolone, reference compound], which IC50 (LNCaP cells [1]; LNCaP) is on record?
A: The IC50 was 24.9 nM.

Q: What about the IC50 (C4-2 cells [2]; [7]) of the same molecule?
A: The IC50 was 3.12 nM.

Q: What about the IC50 (in vitro) of the same molecule?
A: The IC50 was 23300 nM.

Q: Which IC50 (C4-2 cells [2]; [6]) does the source give for `C#C[C@@]1(O)CC[C@@H]2[C@H]3[C@@H](CC[C@@]21C)[C@H]1CCC(=NO)C=C1C[C@H]3C` [Compound 3] here?
A: Its IC50 is < 100 nM.

Q: What about the migration speed (LNCaP cells [3]) of the same molecule?
A: Its migration speed is 2.6 μm/h.

Q: And the migration speed (C4-2 cells [4])?
A: The migration speed was 3.9 μm/h.

Q: For `C[C@H]1CC2=CC(=O)CC[C@@H]2[C@@H]2CC[C@@]3(C)[C@H](CC[C@]3(O)C#Cc3ccccc3N)[C@@H]21` [Compound 15], which IC50 (C4-2 cells [2]; [8]) is on record?
A: The IC50 was 4.1 nM.

Q: What about the IC50 (RWPE-1 cells) of the same molecule?
A: Its IC50 is 13500 nM.

Q: With `C#C[C@@]1(O)CC[C@@H]2[C@H]3[C@@H](CC[C@@]21C)[C@H]1CCC(=O)C=C1C[C@@H]3C` [Compound 1] as the molecule, how does the “proliferation IC50 compared to ABI, in words” value (C4-2 cells [2]; C4-2 cells) read?
A: Its value is “much less in C4-2 cells than that of ABI”.

Q: And the IC50 (C4-2 cells [2]; [8])?
A: The IC50 was 0.72 nM.

Q: And the IC50 (RWPE-1 cells)?
A: The IC50 was 54600 nM.

Q: And the “AR degradation (western blot), in words” value (androgen receptor (AR))?
A: The value was “degraded AR efficiently”.

Q: What about the migration speed (LNCaP cells [3]) of the same molecule?
A: The migration speed was 2.2 μm/h.

Q: And the migration speed (C4-2 cells [4])?
A: The migration speed was 2.4 μm/h.

Q: And the “metabolic stability compared to ABI” value [5]?
A: Its value is “more stable than the current CRPC drug ABI”.

Q: What about the average body weight (LuCaP35CR xenografts; LuCaP35CR mice, over 16 days) of the same molecule?
A: Its average body weight is “did not change the average body weight”.

Q: What about the tumor growth (LuCaP35CR xenografts; castrate mice bearing LuCaP35CR xenografts, 10 mg/kg, compared to vehicle) of the same molecule?
A: The tumor growth was “suppressed the tumor growth rapidly”.

Q: For `CC[C@@]1(O)CC[C@@H]2[C@H]3[C@@H](CC[C@@]21C)[C@H]1CCC(=O)CC1C[C@@H]3C` (some centres unmarked) [Compound 13], which IC50 (C4-2 cells [2]; [8]) is on record?
A: The IC50 was 3.5 nM.

Q: And the IC50 (RWPE-1 cells)?
A: The IC50 was 17800 nM.
